# Reference: patent US7959951B2, “Nitric oxide and its biomedical significance” (The Research Foundation at State University of New York, priority 2002, dated 2011)
# Tested on: E. coli bacteria
# Assay: Inhibition of bacterial growth in LB broth culture
# Type: cell-based
# Conditions: One μg/ml in LB broth, 37° C, streaked on LB-agar
# Procedure: A dried, powdered, formulation of a 1:1 mixture of the wheat grass extract and white willow bark extract prepared in Example 1 above was tested for its ability to inhibit bacterial growth in culture. The formulation was reconstituted in 10 ml of LB broth (Amersham Biosciences, Inc.). The broth was then inoculated with E. coli bacteria and incubated for 5 and 24 hours at 37° C. 20 μl of the cultures were streaked on LB-agar plates and incubated overnight at 37° C. […] An additional control experiment was conducted with the known antibacterial agent, SNAP. One μg/ml SNAP was added to LB broth. The broth was then inoculated with E. coli bacteria and incubated for 5 and 24 hours at 37° C. 20 μl of the cultures were streaked on LB-agar plates and incubated overnight at 37° C. Bacterial growth was decreased in the SNAP culture at 5 and 24 hours, as compared to the control.
structure (smiles),measurement,value
CC(=O)N[C@@H](C(=O)O)C(C)(C)SN=O (racemic) [SNAP],bacterial growth at 5 and 24 hours compared to control,decreased
